# Measurements reported in patent publication US20250101338A1, “BIOMASS DERIVED SURFACE-ACTIVE COMPOSITIONS AND PRODUCTS” (Cambridge Glycoscience Ltd, priority 2021, published 2025).
# Columns and labels:
# [1] = Lipophilic substances solubilization test, preservative P12 (Example 72); assay type: physicochemical; settings: 2 mL of 5 wt % aqueous solution, stepwise addition of 10 μL, duplicate
# Experimental: (§1) After each addition, the sample was agitated with a vortex mixture for 60 s and left to stand for 5 min. If no heterogenous phase was observed visually, the oil was said to be fully soluble. If a heterogenous phase or emulsion was visible, then the saturation limit for that surface-active component was said to have been exceeded. Each surface-active composition was tested in duplicate.
# [2] = Water in oil emulsion stability test (Example 65); assay type: physicochemical; settings: 0.5 mL water with 2 wt % substance + 1.5 mL sunflower oil, vortex 30 s, visual inspection
# Experimental: 0.5 mL deionized water containing 2 wt % of the stated inventive or comparative compound was added to 1.5 mL commercial, food-grade sunflower oil, in a sample vial. The vials were each agitated with a IKA Vortex mixture for 30 seconds. The vials were left to stand and inspected visually for emulsion quality after 5 minutes, 1 hour, 4 hours and finally 24 h (FIG. 14 and FIG. 15). […] The results also show an unexpected increase in emulsifying performance for the inventive compositions comprising oligosaccharide mixture-derived surface-active agents (such as example 4-6 compositions) compared with those derived from a single monomeric sugar (xylose) alone (such as example 12 and 13 compositions).
# [3] = Flash foam generation test (Example 70); assay type: physicochemical; settings: 20 mg in 4 mL deionized water (10 wt % [sic]), 2 mL shaken 30 s in 15 mL tube, duplicate average
# Experimental: 20 mg of each surface-active composition for testing was dissolved in deionized water (4 mL) to give a 10 wt % solution, 2 mL was added to a 15 mL FALCON tube. Each falcon tube was secured in a holder before being vigorously shook for 30 seconds. The initial foam height and structure was noted. The foam height was then noted at 5 min, 10 min, 15 min, 30 min, 45 min, 1 hr and 2 hr after the initial measurement. The experiment was repeated in duplicate. Averaged results are depicted in table 5 and FIG. 11.
# Zein = Zein solubilization test, irritation potential (Example 68); settings: 25 mg zein in 1 mL of 1 wt % active surfactant solution, 30 min, BCA assay, triplicate
# Experimental: Zein is a water-insoluble corn protein, structurally similar to keratin. The ability of a surfactant to solubilize zein is related to irritation potential. The more zein solubilized, the more irritating the product is deemed to be, according to this test. […] The solutions were centrifuged, and the protein concentration in the supernatant determined by BCA assay. Each surfactant was tested in triplicate. Protein content was determined from a bovine serum albumin (BSA) standard curve.
# [4] = Lipophilic substances solubilization test, lemongrass oil (Example 71); assay type: physicochemical; settings: 2 mL of 5 wt % aqueous solution, stepwise addition of 2.5 μL, duplicate
# Experimental: as §1, with “a heterogenous, immiscible biphasic” for “a heterogenous phase”
# [5] = Dynamic foam tests (Example 69); assay type: physicochemical; settings: 5 mL of 0.5 wt % aqueous solution, 40 cm^3 air bubbled at 17 cm^3/min
# Experimental: The intensity and approximate decay-rate for the foaming behavior of the surface-active compositions in dilute aqueous solution was determined by dosing 5 mL of 0.5 wt % aqueous solution of surface-active composition to a vertically-aligned 50 m plastic serological pipette (“Stripette”). Air (40 cm^3) was bubbled through the surface-active composition solution at a rate of 17 cm^3/min via a syringe pump and the foam height upon complete addition of air recorded. The foam height was also recorded again 5 min after complete addition of air, 10 min after complete addition of air, 15 m after complete addition of air, 30 min after complete addition of air, 1 hour after complete addition of air and finally 2 hours after complete addition of air.
# [6] = Critical micellular concentration determination (Example 78); assay type: physicochemical; settings: deionized water
# Experimental: Stock solutions were prepared of known weight concentration (range spanning 0.005 wt %-5.000 wt %) of inventive surface-active compositions (by solution of the appropriate weight of example composition in deionized water). For reference, the surface tension of deionized water in the absence of a surface-active composition is 73 mN. […] The surface tensions of the solutions at the concentration of the CMC were also noted. Results are shown in table 10 and graphical results are depicted in FIG. 22.
# [7] = Relative viscosity, gravity flow time (Example 74); assay type: physicochemical; settings: 10 mL of 10 wt % sodium dodecyl sulfate + 0.3 g NaCl + 0.655 mL of 30 wt % test solution, 27° C., triplicate
# Experimental: The time taken for precisely 3 mL of testing mixture to pass out of the […] by gravity was recorded. The test was repeated in triplicate. Averaged results are depicted in FIG. 20 and table 9. It was unexpected that example 11 composition recorded such high viscosity over example 14 composition, which differs by a slightly smaller alkyl chain (octyl instead of decyl).
# [8] = Aqueous solubility noted at preparation; assay type: physicochemical; settings: water, room temperature
# Experimental: Solid N-decyl xylosylamine (7.6 g) was suspended in 2-propanol (60 mL) and triethylamine (2 equiv.) then acetic anhydride (1.6 equiv.) was added slowly. Stirring continued at ambient temperature for 10 h. Water (50 mL) was added, and the mixture stirred for 5 min. Dichloromethane (50 mL) was added and the phases separated. The aqueous phase was extracted with additional DCM. The combined organic phase washed with saturated aqueous NH4Cl solution, then the aqueous phase extracted with additional DCM. The combined organic phases were dried over anhydrous magnesium sulfate, filtered, then concentrated under reduced pressure to give a yellow oil. The oil was purified by FCC eluting with MeOH (2-15%) in DCM (120 g normal phase silica cartridge with wet loading). Fractions containing the product were combined and evaporated to dryness to give the desired product (4.1 g, 49%) as a yellow gum. LC-MS (Method A), Rt=1.69 min, [M+H]+=332.2. The gum product can be dissolved in water to form solutions of 50 wt % or greater.
# The process was carried out in essentially the same manner as in Example 11 a) step (ii) but using the solid product of Example 11 reaction c) step (i) and the crude product was instead purified by FCC eluting with MeOH (2-13%) in DCM. There were obtained 1.4 g of cream gum product. LC-MS (Method A), Rt=1.87 min, [M+H]^+=360.5.
Compound,Time inspected by which the emulsion first appeared dispersed [2],Volume of foam after given time ([3]; 0 min),Volume of foam after given time ([3]; 5 min),Volume of foam after given time ([3]; 15 min),Volume of foam after given time ([3]; 30 min),Volume of foam after given time ([3]; 1 h),Volume of foam after given time ([3]; 2 h),Maximum volume of lemongrass oil solubilized [4],Average time (for 3 mL to pass out of the stripette by gravity) [7],also measured
"CCCCCCCCCCO[C@@H]1O[C@H](CO)[C@@H](O)[C@H](O)[C@H]1O [Decyl glucoside, reference compound]",24 h,12.0 cm^3,12.0 cm^3,11.8 cm^3,11.5 cm^3,11.5 cm^3,11.0 cm^3,2.5 µL,,Maximum volume of preservative P12 solubilized [1]: 40 µL; Resulting zein concentration solubilized (Zein): 1129 µg/mL
"CCCCCCCCN(C(C)=O)C1OC[C@@H](O)[C@H](O)[C@H]1O (stereo partly shown) [Example 14 composition, N-octyl N-acetyl xylosylamine]",0.083 h,,,,,,,5.0 µL,10.0 s,
"CCCCCCCCCCCCO[C@@H]1O[C@H](CO)[C@@H](O)[C@H](O)[C@H]1O [Dodecyl Glucoside, reference compound]",12 h,,,,,,,,4.0 s,Volume of foam after given time ([5]; 0 min): 42.3 cm^3; Volume of foam after given time ([5]; 5 min): 42.3 cm^3; Volume of foam after given time ([5]; 15 min): 42.3 cm^3; Volume of foam after given time ([5]; 30 min): 42.3 cm^3; Volume of foam after given time ([5]; 1 h): 42.0 cm^3; Volume of foam after given time ([5]; 2 h): 42.0 cm^3
"CCCCCCCCCCCCN(C(C)=O)C1OC[C@@H](O)[C@H](O)[C@H]1O (stereo partly shown) [Example 13 composition, N-dodecyl N-acetyl xylosylamine]",1 h,,,,,,,5.0 µL,,Aqueous solubility (in words) [8]: only sparingly soluble
"CCCCCCCCCCCCCCN(C(C)=O)C1OC[C@@H](O)[C@H](O)[C@H]1O (stereo partly shown) [Example 12 composition, N-tetradecyl N-acetyl xylosylamine]",1 h,,,,,,,,,
Cocoamidopropyl betaine,,,,,,,,,524.0 s,

# Continued, in another order:
Time inspected by which the emulsion first appeared dispersed [2],Volume of foam after given time ([3]; 0 min),Volume of foam after given time ([3]; 5 min),Volume of foam after given time ([3]; 15 min),Volume of foam after given time ([3]; 30 min),Volume of foam after given time ([3]; 1 h),Volume of foam after given time ([3]; 2 h),Maximum volume of lemongrass oil solubilized [4],Average time (for 3 mL to pass out of the stripette by gravity) [7],Compound,also measured
,3.5 cm^3,3.5 cm^3,3.5 cm^3,3.0 cm^3,2.8 cm^3,2.5 cm^3,,,"CCCCCCCCCCCCN(C(C)=O)C1O[C@H](CO)[C@@H](O[C@@H]2O[C@H](CO)[C@@H](O)[C@H](O)[C@H]2O)[C@H](O)[C@H]1O (stereo partly shown) [Example 23 composition, N-dodecyl N-acetyl cellobiosylamine]",Volume of foam after given time ([5]; 0 min): 38.5 cm^3; Volume of foam after given time ([5]; 5 min): 4.0 cm^3; Volume of foam after given time ([5]; 15 min): 4.0 cm^3; Volume of foam after given time ([5]; 30 min): 4.0 cm^3; Volume of foam after given time ([5]; 1 h): 3.0 cm^3; Volume of foam after given time ([5]; 2 h): 3.0 cm^3; Solution Surface tension at CMC [6]: 45 mN; CMC ([6]; from surface tension at 0.005-5.000 wt %): 0.03 wt %
,,,,,,,,1.9 s,Lauryl glucoside,
1 h,15.0 cm^3,15.0 cm^3,15.0 cm^3,15.0 cm^3,15.0 cm^3,14.0 cm^3,,,"CCCCCCCCCCCCOS(=O)(=O)[O-].[Na+] [Sodium dodecyl sulfate, reference compound]",
<0.083 h,,,,,,,,,"O=C[C@H](O)[C@@H](O)[C@H](O)CO [Xylose, reference compound]",
